Where two headings read alike, the source gives them in different places.
Experiment: Tissue distribution of curcumin and THC at necropsy 15 minutes post-infusion
Set-up: species or system Beagle dogs
Conditions: both sexes, beagle, dog, in vivo, 10 mg/kg; for Kp at 8 h: 8 hr infusion
Description: The test article will be administered to 8 Beagle dogs by intravenous infusion over two hours (Part A) or eight hours (Part B) as shown in Table 6.
Multiple samples of tissue weighing approximately 1 gram were removed and snap frozen in the presence or absence of phosphoric acid (H3PO4). For all tissue samples, the levels of curcumin and THC were determined using a method developed by the Bioanalytical Department at Nucro-Technics. […] Values that were below the limit of quantification were assigned a value of 0. […] Tissue distribution data was analyzed using, unless stated, the data from 4 dogs and are presented as the mean±standard error (S.E.).

Work on `COc1cc(CCC(=O)CC(=O)CCc2ccc(O)c(OC)c2)ccc1O` [THC, tetrahydrocurcumin] yielded a Kp at 8 h (H3PO4 stabilized, read-out: Kp [tissue]/[plasma], Striatum) of 0.03, a Kp at 8 h (H3PO4 stabilized, read-out: Kp [tissue]/[plasma], Urinary Bladder) of 0.0106 and a concentration at 15 min (Average tissue concentration, Intestinal wall, Eight hour infusion, H3PO4 stabilized) of 0.09 ng/g. For the same compound, the concentration at 15 min (Average tissue concentration, Intestinal wall, Two hour infusion, H3PO4 stabilized) was 2.11 ng/g, the concentration at 15 min (Eight hour infusion, H3PO4 stabilized, read-out: Average tissue concentration, Bladder) was 1.11 ng/g and the concentration at 15 min (Eight hour infusion, H3PO4 stabilized, read-out: Average tissue concentration, Brainstem) was 3.02 ng/g. It also gave a concentration at 15 min (Eight hour infusion, H3PO4 stabilized, read-out: Average tissue concentration, Cortex) of 0.49 ng/g, a concentration at 15 min (Eight hour infusion, H3PO4 stabilized, read-out: Average tissue concentration, Heart) of 0.03 ng/g and a concentration at 15 min (Eight hour infusion, H3PO4 stabilized, read-out: Average tissue concentration, Hippocampus) of 1.12 ng/g. It also gave a concentration at 15 min (Eight hour infusion, H3PO4 stabilized, read-out: Average tissue concentration, Kidney) of 2.03 ng/g, a concentration at 15 min (Eight hour infusion, H3PO4 stabilized, read-out: Average tissue concentration, Liver) of 2.24 ng/g and a concentration at 15 min (Eight hour infusion, H3PO4 stabilized, read-out: Average tissue concentration, Lung) of 6.36 ng/g. The concentration at 15 min (Eight hour infusion, H3PO4 stabilized, read-out: Average tissue concentration, Muscle) was 2.42 ng/g, the concentration at 15 min (Eight hour infusion, H3PO4 stabilized, read-out: Average tissue concentration, Pancreas) was 1.34 ng/g and the concentration at 15 min (Eight hour infusion, H3PO4 stabilized, read-out: Average tissue concentration, Spleen) was 0.42 ng/g. The concentration at 15 min (Eight hour infusion, H3PO4 stabilized, read-out: Average tissue concentration, Striatum) was 3.13 ng/g, the Kp at 2 h (Kp [tissue]/[plasma], Intestinal Wall, 2 hr infusion, H3PO4 stabilized) was 0.0003 and the Kp at 8 h (Kp [tissue]/[plasma], Intestinal Wall, H3PO4 stabilized) was 0.002. The concentration at 15 min (Table 14, 2 hour infusion, +H3PO4, read-out: Tissue analysis, Brainstem) was 10.6 ng/g, the concentration at 15 min (Table 14, 2 hour infusion, +H3PO4, read-out: Tissue analysis, Cortex) was 3.08 ng/g and the concentration at 15 min (Table 14, 2 hour infusion, +H3PO4, read-out: Tissue analysis, Hippocampus) was 6.46 ng/g. For the same compound, the concentration at 15 min (Table 14, 2 hour infusion, +H3PO4, read-out: Tissue analysis, Liver) was 4.58 ng/g, the concentration at 15 min (Table 14, 2 hour infusion, +H3PO4, read-out: Tissue analysis, Lung) was 9.37 ng/g and the concentration at 15 min (Table 14, 2 hour infusion, +H3PO4, read-out: Tissue analysis, Pancreas) was 0.91 ng/g. The concentration at 15 min (Table 14, 2 hour infusion, +H3PO4, read-out: Tissue analysis, Spleen) was 1.6 ng/g, the concentration at 15 min (Table 14, 2 hour infusion, +H3PO4, read-out: Tissue analysis, Striatum) was 11.1 ng/g and the concentration at 15 min (Table 14, 2 hour infusion, −H3PO4, read-out: Tissue analysis, Brainstem) was 2.33 ng/g. For the same compound, the concentration at 15 min (Table 14, 2 hour infusion, −H3PO4, read-out: Tissue analysis, Cortex) was 0.67 ng/g, the concentration at 15 min (Table 14, 2 hour infusion, −H3PO4, read-out: Tissue analysis, Hippocampus) was 0.75 ng/g and the concentration at 15 min (Table 14, 2 hour infusion, −H3PO4, read-out: Tissue analysis, Liver) was 2.41 ng/g. It also gave a concentration at 15 min (Table 14, 2 hour infusion, −H3PO4, read-out: Tissue analysis, Lung) of 17.7 ng/g, a concentration at 15 min (Table 14, 2 hour infusion, −H3PO4, read-out: Tissue analysis, Pancreas) of 2.01 ng/g and a concentration at 15 min (Table 14, 2 hour infusion, −H3PO4, read-out: Tissue analysis, Spleen) of 1.35 ng/g. It also gave a concentration at 15 min (Table 14, 2 hour infusion, −H3PO4, read-out: Tissue analysis, Striatum) of 6.21 ng/g, a concentration at 15 min (Table 15, 2 hour infusion, +H3PO4, read-out: Tissue analysis, Brainstem) of 3.02 ng/g and a concentration at 15 min (Table 15, 2 hour infusion, +H3PO4, read-out: Tissue analysis, Cortex) of 0.49 ng/g. It also gave a concentration at 15 min (Table 15, 2 hour infusion, +H3PO4, read-out: Tissue analysis, Hippocampus) of 1.12 ng/g, a concentration at 15 min post-infusion (Table 15, 2 hour infusion, +H3PO4, read-out: Tissue analysis, Liver) of 2.24 ng/g and a concentration at 15 min (Table 15, 2 hour infusion, +H3PO4, read-out: Tissue analysis, Lung) of 6.36 ng/g. The concentration at 15 min (Table 15, 2 hour infusion, +H3PO4, read-out: Tissue analysis, Pancreas) was 1.34 ng/g, the concentration at 15 min post-infusion (Table 15, 2 hour infusion, +H3PO4, read-out: Tissue analysis, Spleen) was 0.42 ng/g and the concentration at 15 min (Table 15, 2 hour infusion, +H3PO4, read-out: Tissue analysis, Striatum) was 3.13 ng/g. It also gave a concentration at 15 min (Table 15, 2 hour infusion, −H3PO4, read-out: Tissue analysis, Brainstem) of 0.83 ng/g, a concentration at 15 min (Table 15, 2 hour infusion, −H3PO4, read-out: Tissue analysis, Cortex) of 0.12 ng/g and a concentration at 15 min (Table 15, 2 hour infusion, −H3PO4, read-out: Tissue analysis, Hippocampus) of 0.01 ng/g. For the same compound, the concentration at 15 min post-infusion (Table 15, 2 hour infusion, −H3PO4, read-out: Tissue analysis, Liver) was 2.63 ng/g, the concentration at 15 min (Table 15, 2 hour infusion, −H3PO4, read-out: Tissue analysis, Lung) was 10.8 ng/g and the concentration at 15 min (Table 15, 2 hour infusion, −H3PO4, read-out: Tissue analysis, Pancreas) was 0.33 ng/g. For the same compound, the concentration at 15 min post-infusion (Table 15, 2 hour infusion, −H3PO4, read-out: Tissue analysis, Spleen) was 0.32 ng/g, the concentration at 15 min (Table 15, 2 hour infusion, −H3PO4, read-out: Tissue analysis, Striatum) was 1.12 ng/g and the concentration at 15 min (Tissue level, Intestinal Wall, 2 hour infusion, No H3PO4) was 0.73 ng/g. The concentration at 15 min (Tissue level, Intestinal Wall, 2 hour infusion, Plus H3PO4) was 2.12 ng/g, the concentration at 15 min (Tissue level, Intestinal Wall, 8 hour infusion, No H3PO4) was 0.31 ng/g and the concentration at 15 min (Tissue level, Intestinal Wall, 8 hour infusion, Plus H3PO4) was 0.21 ng/g. For the same compound, the concentration at 15 min (Two hour infusion, H3PO4 stabilized, read-out: Average tissue concentration, Bladder) was 2.25 ng/g, the concentration at 15 min (Two hour infusion, H3PO4 stabilized, read-out: Average tissue concentration, Brainstem) was 10.6 ng/g and the concentration at 15 min (Two hour infusion, H3PO4 stabilized, read-out: Average tissue concentration, Cortex) was 3.08 ng/g. It also gave a concentration at 15 min (Two hour infusion, H3PO4 stabilized, read-out: Average tissue concentration, Heart) of 0.68 ng/g, a concentration at 15 min (Two hour infusion, H3PO4 stabilized, read-out: Average tissue concentration, Hippocampus) of 6.46 ng/g and a concentration at 15 min (Two hour infusion, H3PO4 stabilized, read-out: Average tissue concentration, Kidney) of 4.25 ng/g. The concentration at 15 min (Two hour infusion, H3PO4 stabilized, read-out: Average tissue concentration, Liver) was 4.58 ng/g, the concentration at 15 min (Two hour infusion, H3PO4 stabilized, read-out: Average tissue concentration, Lung) was 9.37 ng/g and the concentration at 15 min (Two hour infusion, H3PO4 stabilized, read-out: Average tissue concentration, Muscle) was 4.19 ng/g. It also gave a concentration at 15 min (Two hour infusion, H3PO4 stabilized, read-out: Average tissue concentration, Pancreas) of 0.91 ng/g, a concentration at 15 min (Two hour infusion, H3PO4 stabilized, read-out: Average tissue concentration, Spleen) of 1.6 ng/g and a concentration at 15 min (Two hour infusion, H3PO4 stabilized, read-out: Average tissue concentration, Striatum) of 11.1 ng/g.

Source: patent US9170257B2 (priority 2012, dated 2015)
